Tests used:
Type in all cases: in vivo
rice (Oryza sativa) = experiment: Test C flooded paddy test; details: Flood; for Plant response rating (scale of 0 to 100), Rice: 0 is no effect, 100 is complete control
Outline: (§1)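 Visual 0–100 injury rating versus controls (0 = no effect, 100 = complete control) at 13 to 15 d. 2-leaf-stage plants; pots flooded 3 cm over soil surface, test compound added to paddy water; greenhouse.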

[1] = tested on: sedge, umbrella (small-flower umbrella sedge, Cyperus difformis); experiment: Test C flooded paddy test; details: Flood; for Plant response rating (scale of 0 to 100), Sedge, Umbrella: 0 is no effect, 100 is complete control
Outline: as §1

[2] = tested on: barnyardgrass (Echinochloa crus-galli); experiment: Test C flooded paddy test; details: Flood; for Plant response rating (scale of 0 to 100), Barnyardgrass: 0 is no effect, 100 is complete control
Outline: as §1

[3] = tested on: ducksalad (Heteranthera limosa); experiment: Test C flooded paddy test; details: Flood; for Plant response rating (scale of 0 to 100), Ducksalad: 0 is no effect, 100 is complete control
Outline: as §1

[4] = tested on: speedwell (bird's-eye speedwell, Veronica persica); experiment: Test D preemergence; details: scale 0 to 100
Outline: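 Percent control (0–100) estimated by eye relative to untreated plants roughly 21 d after preemergence treatment of seeds in silt loam soil.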

[5] = tested on: redroot pigweed (Amaranthus retroflexus); experiment: Test G Pre-Emergence Protocol; details: Amaranthus retroflexus, pre-emergence, 312 h, evaluated after 13 days; for pest or weed control at 15.625 g/ha: 15.625 g ai/ha; for pest or weed control at 15.625 g/ha / pest or weed control at 250 g/ha: read-out: Pigweed, Redroot damage rating (100=total damage to plant; 0=no damage to plant); for pest or weed control at 62.5 g/ha: 62.5 g ai/ha, 100=total damage to plant, 0=no damage to plant, read-out: plant damage rating, Pigweed, Redroot; for pest or weed control at 250 g/ha: 250 g ai/ha
Method: (§2) Seeds of corn (Zea mays), giant foxtail (Setaria faberi), barnyardgrass (Echinochloa crus-galli), ivy-leaved morning glory (Ipomoea hederacea), redroot pigweed (Amaranthus retroflexus) and velvetleaf (Abutilon theophrasti) were sown in standard soil in pots. After cultivation for one day under controlled conditions in a glasshouse (at 24/16° C., day/night; 14 hours light; 65% humidity), the plants were sprayed with an aqueous spray solution derived from the formulation of the technical active ingredient in acetone/water (50:50) solution containing 0.5% Tween 20 (polyoxyethylene sorbitan monolaurate, CAS RN 9005-64-5) to give a final dose of 15.625, 62.5 or 250 g/ha of test compound.
(§3) The test plants were then grown on under controlled conditions in a glasshouse (at 24/16° C., day/night; 14 hours light; 65% humidity) and watered twice daily. After 13 days the test was evaluated (100=total damage to plant; 0=no damage to plant). A dash (-) means no test result.

corn (Zea mays) = experiment: Test G Pre-Emergence Protocol; details: Zea mays, pre-emergence, 312 h, evaluated after 13 days; for plant injury at 15.625 g/ha: 15.625 g ai/ha; for plant injury at 15.625 g/ha / plant injury at 250 g/ha: read-out: Corn damage rating (100=total damage to plant; 0=no damage to plant); for plant injury at 62.5 g/ha: 62.5 g ai/ha, 100=total damage to plant, 0=no damage to plant, read-out: plant damage rating, Corn; for plant injury at 250 g/ha: 250 g ai/ha
Method: as §2, §3

[6] = tested on: velvetleaf (Abutilon theophrasti); experiment: Test G Pre-Emergence Protocol; details: Abutilon theophrasti, pre-emergence, 312 h, evaluated after 13 days; for pest or weed control at 15.625 g/ha: 15.625 g ai/ha; for pest or weed control at 15.625 g/ha / pest or weed control at 250 g/ha: read-out: Velvetleaf damage rating (100=total damage to plant; 0=no damage to plant); for pest or weed control at 62.5 g/ha: 62.5 g ai/ha, 100=total damage to plant, 0=no damage to plant, read-out: plant damage rating, Velvetleaf; for pest or weed control at 250 g/ha: 250 g ai/ha
Method: as §2, §3

[7] = tested on: barnyardgrass (Echinochloa crus-galli); experiment: Test G Pre-Emergence Protocol; details: Echinochloa crus-galli, pre-emergence, 312 h, evaluated after 13 days; for pest or weed control at 15.625 g/ha: 15.625 g ai/ha, read-out: Barnyard grass damage rating (100=total damage to plant; 0=no damage to plant); for pest or weed control at 62.5 g/ha: 62.5 g ai/ha, 100=total damage to plant, 0=no damage to plant, read-out: plant damage rating, Barnyardgrass; for pest or weed control at 250 g/ha: 250 g ai/ha, read-out: Barnyardgrass damage rating (100=total damage to plant; 0=no damage to plant)
Method: as §2, §3

[8] = tested on: giant foxtail (Setaria faberi); experiment: Test G Pre-Emergence Protocol; details: Setaria faberi, pre-emergence, 312 h, evaluated after 13 days; for pest or weed control at 15.625 g/ha: 15.625 g ai/ha; for pest or weed control at 15.625 g/ha / pest or weed control at 250 g/ha: read-out: Foxtail, Giant damage rating (100=total damage to plant; 0=no damage to plant); for pest or weed control at 62.5 g/ha: 62.5 g ai/ha, 100=total damage to plant, 0=no damage to plant, read-out: plant damage rating, Foxtail, Giant; for pest or weed control at 250 g/ha: 250 g ai/ha
Method: as §2, §3

[9] = tested on: ivy-leaved morning glory (Ipomoea hederacea); experiment: Test G Pre-Emergence Protocol; details: Ipomoea, pre-emergence, 312 h, evaluated after 13 days; for pest or weed control at 15.625 g/ha: 15.625 g ai/ha, read-out: Morning-glory, Ivy-leaved damage rating (100=total damage to plant; 0=no damage to plant); for pest or weed control at 62.5 g/ha: 62.5 g ai/ha, 100=total damage to plant, 0=no damage to plant, read-out: plant damage rating, Morningglory, Ivy-leaved; for pest or weed control at 250 g/ha: 250 g ai/ha, read-out: Morningglory, Ivy-leaved damage rating (100=total damage to plant; 0=no damage to plant)
Method: as §2, §3

[10] = 31 g ai/ha, scale 0 to 100 (0 no effect, 100 complete control), 13 to 15 d

| SMILES | Plant response rating (scale of 0 to 100), Rice (rice (Oryza sativa); 62 g ai/ha) | Plant response rating (scale of 0 to 100), Rice (rice (Oryza sativa); 125 g ai/ha) | Plant response rating (scale of 0 to 100), Rice (rice (Oryza sativa); 250 g ai/ha) | Plant response rating (scale of 0 to 100), Sedge, Umbrella ([1]; 62 g ai/ha) | Plant response rating (scale of 0 to 100), Sedge, Umbrella ([1]; 125 g ai/ha) | Plant response rating (scale of 0 to 100), Sedge, Umbrella ([1]; 250 g ai/ha) | Plant response rating (scale of 0 to 100), Barnyardgrass ([2]; 62 g ai/ha) | Plant response rating (scale of 0 to 100), Barnyardgrass ([2]; 125 g ai/ha) | Plant response rating (scale of 0 to 100), Barnyardgrass ([2]; 250 g ai/ha) | Plant response rating (scale of 0 to 100), Ducksalad ([3]; 62 g ai/ha) | Plant response rating (scale of 0 to 100), Ducksalad ([3]; 125 g ai/ha) | Plant response rating (scale of 0 to 100), Ducksalad ([3]; 250 g ai/ha) | Plant response rating (scale of 0 to 100), Rice (rice (Oryza sativa); 31 g ai/ha) | Plant response rating (scale of 0 to 100), Sedge, Umbrella ([1]; 31 g ai/ha) | Plant response rating (scale of 0 to 100), Barnyardgrass ([2]; 31 g ai/ha) | Plant response rating (scale of 0 to 100), Ducksalad ([3]; 31 g ai/ha) | also measured |
| --- | --- | --- | --- | --- | --- | --- | --- | --- | --- | --- | --- | --- | --- | --- | --- | --- | --- |
| O=C1NCC(c2cccc(OC(F)(F)C(F)F)c2)C1C(=O)Nc1ccccc1F (racemic) [Compound 695] | 0 | 15 | 15 | 0 | 0 | 0 | 60 | 65 | 70 | 50 | 80 | 100 |  |  |  |  | Plant response rating, Rice (rice (Oryza sativa); [10]): 0; Plant response rating, Sedge, Umbrella [1, 10]: 0; Plant response rating, Barnyardgrass [2, 10]: 20; Plant response rating, Ducksalad [3, 10]: 30 |
| CN1CC(c2ccc(F)c(C(F)(F)F)c2)C(C(=O)Nc2cccc(F)c2F)C1=O (stereo not drawn) [Compound 613] | 0 | 10 | 20 | 0 | 0 | 0 | 30 | 50 | 60 | 60 | 75 | 100 | 0 | 0 | 0 | 0 |  |
| CN1CC(c2cccc(OC(F)F)c2)C(C(=O)Nc2ccccc2F)C1=O (stereo not drawn) [Compound 618] | 0 | 15 | 15 | 0 | 0 | 0 | 50 | 75 | 80 | 60 | 95 | 100 | 0 | 0 | 35 | 60 |  |
| CN1CC(c2ccc(C(F)(F)F)cc2)C(C(=O)Nc2ccccc2S(C)(=O)=O)C1=O (stereo not drawn) [Compound 624] |  |  |  |  |  |  |  |  |  |  |  |  |  |  |  |  | Plant response rating: Speedwell ([4]; 31 g ai/ha): 90; Plant response rating: Speedwell ([4]; 62 g ai/ha): 90; Plant response rating: Speedwell ([4]; 125 g ai/ha): 100; Plant response rating: Speedwell ([4]; 250 g ai/ha): 100 |
| CN1CC(c2cccc(C(F)(F)F)c2)C(C(=O)Nc2ccccc2S(C)(=O)=O)C1=O (stereo not drawn) [Compound 637] | 15 | 15 | 45 | 0 | 0 | 0 | 40 | 60 | 75 | 45 | 70 | 90 | 15 | 0 | 35 | 30 | Plant response rating: Speedwell ([4]; 31 g ai/ha): 15; Plant response rating: Speedwell ([4]; 62 g ai/ha): 60; Plant response rating: Speedwell ([4]; 125 g ai/ha): 100; Plant response rating: Speedwell ([4]; 250 g ai/ha): 100 |
| Cc1ccc([C@H]2CN(C)C(=O)[C@@H]2C(=O)Nc2cccnc2F)cc1 [Compound 1398] |  |  |  |  |  |  |  |  |  |  |  |  |  |  |  |  | pest or weed control at 15.625 g/ha [5]: 20%; pest or weed control at 62.5 g/ha [5]: 60%; pest or weed control at 250 g/ha [5]: 80%; plant injury at 15.625 g/ha (corn (Zea mays)): 20%; plant injury at 62.5 g/ha (corn (Zea mays)): 80%; plant injury at 250 g/ha (corn (Zea mays)): 90%; pest or weed control at 15.625 g/ha [6]: 0%; pest or weed control at 62.5 g/ha [6]: 60%; pest or weed control at 250 g/ha [6]: 80%; pest or weed control at 15.625 g/ha [7]: 80%; pest or weed control at 62.5 g/ha [7]: 90%; pest or weed control at 250 g/ha [7]: 90%; pest or weed control at 15.625 g/ha [8]: 90%; pest or weed control at 62.5 g/ha [8]: 90%; pest or weed control at 250 g/ha [8]: 90%; pest or weed control at 15.625 g/ha [9]: 0%; pest or weed control at 62.5 g/ha [9]: 60%; pest or weed control at 250 g/ha [9]: 80% |
| Cc1ccc([C@H]2CN(C)C(=O)[C@@H]2C(=O)Nc2ccc(F)nc2F)cc1 [Compound 1402] |  |  |  |  |  |  |  |  |  |  |  |  |  |  |  |  | pest or weed control at 15.625 g/ha [5]: 0%; pest or weed control at 62.5 g/ha [5]: 80%; pest or weed control at 250 g/ha [5]: 80%; plant injury at 15.625 g/ha (corn (Zea mays)): 60%; plant injury at 62.5 g/ha (corn (Zea mays)): 80%; plant injury at 250 g/ha (corn (Zea mays)): 90%; pest or weed control at 15.625 g/ha [6]: 0%; pest or weed control at 62.5 g/ha [6]: 70%; pest or weed control at 250 g/ha [6]: 80%; pest or weed control at 15.625 g/ha [7]: 80%; pest or weed control at 62.5 g/ha [7]: 90%; pest or weed control at 250 g/ha [7]: 90%; pest or weed control at 15.625 g/ha [8]: 90%; pest or weed control at 62.5 g/ha [8]: 90%; pest or weed control at 250 g/ha [8]: 90%; pest or weed control at 15.625 g/ha [9]: 40%; pest or weed control at 62.5 g/ha [9]: 70%; pest or weed control at 250 g/ha [9]: 80% |

From patent publication US12077503B2, “Substituted cyclic amides and their use as herbicides” (FMC CORPORATION, priority 2015, dated 2024)
